For two compounds, IC50 and inhibition results are on record in ChEMBL document CHEMBL1133360, “Design, synthesis, and biological activity of a cyclic peptide: an inhibitor of HIV-1 tat-TAR interactions in human cells” (Bioorg Med Chem Lett, 2000).

Experiment [1] can be described thus: Inhibitory activity of compound was tested against transcriptional activation by Tat protein in human cells. It counts as functional, cell-based.
A further experiment is filed under the species Homo sapiens. The experiment in a line: Percent of Tat-activation inhibited at 500 uM of the compound. Format: functional.

Where a SMILES comes first, the peptide text is derived from it. [ ]: non-standard residue; d: D form.

On to `NCCCC[C@H](N)C(=O)N[C@H](CCCCN)C(=O)N[C@@H](CC(N)=O)C(=O)O` (H-Lys-[dK]-Asn-OH), for which, in experiment [1], the IC50 is approximately 50 nM.
In experiment [1], `NCCCC[C@@H]1NC(=O)[C@@H](N)CCCCNC(=O)CC[C@@H](C(=O)O)NC(=O)[C@H](CC(N)=O)NC(=O)[C@@H](CCCCN)NC1=O` showed an IC50 of approximately 40 nM. For the same compound, the inhibition in the experiment listed under Homo sapiens was more than 90%.
